Test results: patent publication US20170362228A1, “TETRAHYDRO-PYRIDO[3,4-b]INDOLE ESTROGEN RECEPTOR MODULATORS AND USES THEREOF” (Genentech, Inc., priority 2016, published 2017)
Where two headings read alike, the source gives them in different places.

Tests used:
MCF7 cells = experiment: In vitro cell proliferation assays (Examples 902 and 903), MCF7; format: cell-based; settings: read-out: ER-alpha MCF7 HCS (EC50)
Procedure: Efficacy of estrogen receptor modulator compounds and chemotherapeutic compounds are measured by a cell proliferation assay employing the following protocol (Mendoza et al (2002) Cancer Res. 62:5485-5488).
The CellTiter-Glo® Luminescent Cell Viability Assay is a homogeneous method to determine the number of viable cells in culture based on quantitation of the ATP present, which signals the presence of metabolically active cells. The CellTiter-Glo® Assay is designed for use with multiwell plate formats, making it ideal for automated high-throughput screening (HTS), cell proliferation and cytotoxicity assays. The homogeneous assay procedure involves adding a single reagent (CellTiter-Glo® Reagent) directly to cells cultured in serum-supplemented medium. Cell washing, removal of medium or multiple pipetting steps are not required. The Cell Titer-Glo® Luminescent Cell Viability Assay, including reagents and protocol are commercially available (Promega Corp., Madison, Wis., Technical Bulletin TB288).
The assay assesses the ability of compounds to enter cells and inhibit cell proliferation. The assay principle is based on the determination of the number of viable cells present by quantitating the ATP present in a homogenous assay where addition of the Cell TiterGlo® reagent results in cell lysis and generation of a luminescent signal through the luciferase reaction. The luminescent signal is proportional to the amount of ATP present.
Procedure: Day 1—Seed Cell Plates (384-well black, clear bottom, microclear, TC plates with lid from Falcon #353962), Harvest cells, Seed cells at 1000 cells per 54 μl per well into 384 well Cell Plates for 3 days assay. Cell Culture Medium: RPMI or DMEM high glucose, 10% Fetal Bovine Serum, 2 mM L-Glutamine, P/S. Incubate 0/N (overnight) at 37° C., 5% CO2.
Day 2—Add Drug to Cells, Compound Dilution, DMSO Plates (serial 1:2 for 9 points). Add 20 μl of compound at 10 mM in the 2nd column of 96 well plate. Perform serial 1:2 across the plate (10 μl+20 μl 100% DMSO) for a total of 9 points using Precision Media Plates 96-well conical bottom polypropylene plates from Nunc (cat.#249946) (1:50 dilution). Add 147 μl of Media into all wells. Transfer 3 μl of DMSO+compound from each well in the DMSO Plate to each corresponding well on Media Plate using Rapidplate® (Caliper, a Perkin-Elmer Co.). For 2 drug combination studies, transfer one drug 1.5 μl of DMSO+compound from each well in the DMSO Plate to each corresponding well on Media Plate using Rapidplate. Then, transfer another drug 1.5 μl to the medium plate.
Drug Addition to Cells, Cell Plate (1:10 dilution): Add 6 μl of media+compound directly to cells (54 μl of media on the cells already). Incubate 3 days at 37° C., 5% CO2 in an incubator that will not be opened often.
Day 5—Develop Plates, Thaw Cell Titer Glo Buffer at room temperature: Remove Cell Plates from 37° C. and equilibrate to room temperature for about 30 minutes. Add Cell Titer-Glo® Buffer to Cell Titer-Glo® Substrate (bottle to bottle). Add 30 μl Cell Titer-Glo® Reagent (Promega cat.# G7572) to each well of cells. Place on plate shaker for about 30 minutes. Read luminescence on Analyst HT Plate Reader (half second per well).
Cell viability assays and combination assays: Cells were seeded at 1000-2000 cells/well in 384-well plates for 16 h. On day two, nine serial 1:2 compound dilutions were made in DMSO in a 96 well plate. The compounds were further diluted into growth media using a Rapidplate® robot (Zymark Corp., Hopkinton, Mass.). The diluted compounds were then added to quadruplicate wells in 384-well cell plates and incubated at 37° C. and 5% CO2. After 4 days, relative numbers of viable cells were measured by luminescence using Cell Titer-Glo® (Promega) according to the manufacturer's instructions and read on a Wallac Multilabel Reader® (PerkinElmer, Foster City). EC50 values were calculated using Prism® 4.0 software (GraphPad, San Diego). […]

[1] = target: T1, estrogen receptor alpha (ESR1) (Homo sapiens, UniProt P03372); experiment: Breast Cancer Cell ERa High Content Fluorescence Imaging Degradation Assay (Example 901); format: cell-based; settings: MCF7 breast cancer cells, 4 hours, plateau of the maximal effect
T1 construct: endogenous in cells; host or cells: MCF7 breast cancer cells
T1 sequence (P03372 1-595): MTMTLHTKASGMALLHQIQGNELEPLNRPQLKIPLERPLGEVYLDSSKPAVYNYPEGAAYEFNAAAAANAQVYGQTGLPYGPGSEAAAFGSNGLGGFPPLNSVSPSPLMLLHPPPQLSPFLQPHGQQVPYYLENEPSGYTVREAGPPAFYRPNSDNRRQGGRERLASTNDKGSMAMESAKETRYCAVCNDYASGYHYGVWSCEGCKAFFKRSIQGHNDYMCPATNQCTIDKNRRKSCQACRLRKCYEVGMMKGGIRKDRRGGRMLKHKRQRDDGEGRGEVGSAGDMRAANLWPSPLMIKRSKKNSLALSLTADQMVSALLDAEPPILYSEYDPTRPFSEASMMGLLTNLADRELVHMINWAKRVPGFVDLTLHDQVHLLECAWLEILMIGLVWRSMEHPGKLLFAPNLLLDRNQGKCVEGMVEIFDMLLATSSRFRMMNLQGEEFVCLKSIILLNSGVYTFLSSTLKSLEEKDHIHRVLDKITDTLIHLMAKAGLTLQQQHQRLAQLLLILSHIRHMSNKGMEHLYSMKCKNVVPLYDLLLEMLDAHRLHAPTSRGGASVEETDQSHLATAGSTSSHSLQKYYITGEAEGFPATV
Procedure: MCF7 breast cancer cells were seeded on day 1 at a density of 10,000 cells per well in 384 well poly-lysine coated tissue culture plate (Greiner # T-3101-4), in 50 μL/well RPMI (phenol red free), 10% FBS (Charcoal stripped), containing L-glutamine. On day 2, compounds were prepared at 2 compound source concentrations: 100 μM and 1 μM (ultimately to give 2 overlapping titration curves), in a Labcyte low dead volume plate, 10 μL/well, and 10 μL of DMSO in designated wells for backfill, and 5 μM Fulvestrant (control compound) in designated wells. Compounds and controls were dispensed using a Labcyte Echo acoustic dispenser to dispense compounds with a predefined serial dilution (1.8×, 10 point, in duplicate) and appropriate backfill and control compounds (final total volume transferred was 417.5 nL and compound dispense volume ranges from 2.5 nL to 417.5 nL; 0.84% DMSO (v/v) final), ultimately producing a concentration range from 0.05 nM to 835 nM. Cell plates were incubated at 37° C., for 4 hours. Fixation and permeabilization were carried out using a Biotek EL406 plate washer and dispenser as follows. Cells were fixed by addition of 15 μL of 16% paraformaldehyde (Electron Microscopy Sciences #15710-S) directly to the 50 μL cell culture medium in each well using the peristaltic pump 5 μL cassette on a Biotek EL406 (final concentration of formaldehyde was 3.7% w/v). Samples were incubated 30 minutes. Well contents was aspirated and 50 μL/well of Phosphate Buffered Saline (PBS) containing 0.5% w/v bovine serum albumen, 0.5% v/v Triton X-100 (Antibody Dilution Buffer) was added to each well. Samples were incubated for 30 minutes. Well contents were aspirated and washed 3 times with 100 μL/well of PBS. Immunofluorescence staining of estrogen receptor alpha (ESR1) was carried out using a Biotek EL406 plate washer and dispenser as follows. The well supernatant was aspirated from the wells and 25 μL/well of anti-ESR1 mAb (F10) (Santa Cruz sc-8002) diluted 1:1000 in Antibody Dilution Buffer was dispensed. Samples were incubated for 2 hours at room temperature. Samples were washed 4 times with 100 μL/well of PBS. 25 uL/well of secondary antibody solution (Alexafluor 488 conjugate anti-mouse IgG (LifeTechnologies #A21202) diluted 1:1000 and Hoechst 33342 1 μg/ml diluted in Antibody Dilution Buffer) were dispensed into each well. Samples were incubated for 2 hours at room temperature. Samples were washed 3 times with 100 μL/well of PBS using a Biotek EL406. Quantitative fluorescence imaging of ESR1 was carried out using a Cellomics Arrayscan V (Thermo). Fluorescence images of the samples (Channel 1: XF53 Hoechst (DNA stain); Channel 2: XF53 FITC (ESR1 stain)) were acquired using a Cellomics VTI Arrayscan using the Bioapplication “Compartmental Analysis” using the auto-exposure (based on DMSO control wells) setting “peak target percentile” set to 25% target saturation for both channels. Channel 1 (DNA stain) was used to define the nuclear region (Circ). Measurements of “Mean_CircAvgIntCh2”, which is the Alexafluor 488 fluorescence intensity (ESR1) within the nuclear region, was measured on a per cell basis and averaged over all the measured cells. Data analysis was carried out using Genedata Screener Software, with DMSO and 5 nM Fulvestrant treated samples being used to define the 0% and 100% changes in ESR1. The “Robust Fit” method was used to define the inflexion point of curve (EC50) and the plateau of the maximal effect (Sinf). Degradation data for exemplary Formula I compounds is reported as ER-alpha MCF7 HCS Sinf(%) values in Table 1.

[2] = Table 1a, DMSO and Fulvestrant define 0% and 100% changes in ESR1

Row | SMILES | EC50 (MCF7 cells; Homo sapiens, MCF7, Table 1a) | ER-alpha MCF7 HCS (S inf) [1, 2] | EC50 (MCF7 cells; Homo sapiens, MCF7, Table 1b) | ER-alpha MCF7 HCS (S inf) ([1]; Table 1b) | EC50 (MCF7 cells; Table 1a)
1 | C[C@@H]1Cc2c([nH]c3ccccc23)[C@@H](c2c(F)cc([C@H](O)C3CN(CCCF)C3)cc2F)N1C[C@@H](F)CF [Compound 161] | – | – | 130 pM | −97% | –
2 | C[C@H]1Cc2c([nH]c3c(F)cccc23)[C@H](c2c(F)cc([C@H](O)C3CN(CCCF)C3)cc2F)N1CC(F)(F)CO (single isomer, unassigned) [Compound 131] | 7640 pM | −95.59% | – | – | –
3 | C[C@@H]1Cc2c([nH]c3ccc(F)cc23)[C@@H](c2c(F)cc(C(O)C3CN(CCCF)C3)cc2F)N1CC(C)(F)CO (stereo partly drawn) [Compound 113, 3-((1R,3R)-1-(2,6-difluoro-4-((1-(3-fluoropropyl)azetidin-3-yl)(hydroxy)methyl)phenyl)-6-fluoro-3-methyl-1,3,4,9-tetrahydro-2H-pyrido[3,4-b]indol-2-yl)-2-fluoro-2-methylpropan-1-ol] | – | −91.41% | – | – | 884 pM
4 | C[C@@H]1Cc2c([nH]c3ccccc23)[C@@H](c2c(F)cc(C(O)C3CN(CCCF)C3)cc2F)N1CC(F)F (some centres unmarked) [Compound 110] | 82 pM | −98.4% | – | – | –
5 | C[C@@H]1Cc2c([nH]c3ccccc23)[C@@H](c2ccc([C@H](O)C3CN(CCCF)C3)cc2)N1CC(F)(F)CO [Compound 127, 2,2-difluoro-3-((1R,3R)-1-(4-((R)-(1-(3-fluoropropyl)azetidin-3-yl)(hydroxy)methyl)phenyl)-3-methyl-1,3,4,9-tetrahydro-2H-pyrido[3,4-b]indol-2-yl)propan-1-ol] | 71 pM | −97.29% | – | – | –

The remaining compounds from weak to strong by EC50 (MCF7 cells; Homo sapiens, MCF7, Table 1a), led by results:

Row | EC50 (MCF7 cells; Homo sapiens, MCF7, Table 1a) | ER-alpha MCF7 HCS (S inf) [1, 2] | EC50 (MCF7 cells; Homo sapiens, MCF7, Table 1b) | ER-alpha MCF7 HCS (S inf) ([1]; Table 1b) | EC50 (MCF7 cells; Table 1a) | SMILES
6 | 66 pM | −95.97% | – | – | – | C[C@@H]1Cc2c([nH]c3ccccc23)[C@@H](c2c(F)cc([C@H](O)C3CN(CCCF)C3)cc2F)N1CC(C)(C)F [Compound 111, (R)-(3,5-difluoro-4-((1R,3R)-2-(2-fluoro-2-methylpropyl)-3-methyl-2,3,4,9-tetrahydro-1H-pyrido[3,4-b]indol-1-yl)phenyl)(1-(3-fluoropropyl)azetidin-3-yl)methanol]
7 | 50 pM | −99.15% | – | – | – | C[C@@H]1Cc2c([nH]c3ccccc23)[C@@H](c2c(F)cc([C@@H](O)C3CN(CCCF)C3)cc2F)N1CC(C)(C)F [Compound 112, (S)-(3,5-difluoro-4-((1R,3R)-2-(2-fluoro-2-methylpropyl)-3-methyl-2,3,4,9-tetrahydro-1H-pyrido[3,4-b]indol-1-yl)phenyl)(1-(3-fluoropropyl)azetidin-3-yl)methanol]
8 | 37 pM | −99.17% | – | – | – | C[C@@H]1Cc2c([nH]c3ccccc23)[C@@H](c2c(F)cc([C@@H](O)C3CN(CCCF)C3)cc2F)N1CC(F)(F)F [Compound 120, (S)-(3,5-difluoro-4-((1R,3R)-3-methyl-2-(2,2,2-trifluoroethyl)-2,3,4,9-tetrahydro-1H-pyrido[3,4-b]indol-1-yl)phenyl)(1-(3-fluoropropyl)azetidin-3-yl)methanol]
9 | 35 pM | −98.3% | – | – | – | C[C@@H]1Cc2c([nH]c3ccccc23)[C@@H](c2c(F)cc(C(O)C3CN(CCCF)C3)cc2F)N1CC(F)(F)CO (stereo partly drawn) [Compound 106, 3-((1R,3R)-1-(2,6-difluoro-4-((1-(3-fluoropropyl)azetidin-3-yl)(hydroxy)methyl)phenyl)-3-methyl-1,3,4,9-tetrahydro-2H-pyrido[3,4-b]indol-2-yl)-2,2-difluoropropan-1-ol]
10 | 21 pM | −95.71% | – | – | – | C[C@@H]1Cc2c([nH]c3ccccc23)[C@@H](c2ccc([C@@H](F)C3CN(CCCF)C3)cc2F)N1CC(F)(F)CO [Compound 126, 2,2-difluoro-3-((1R,3R)-1-(2-fluoro-4-((S)-fluoro(1-(3-fluoropropyl)azetidin-3-yl)methyl)phenyl)-3-methyl-1,3,4,9-tetrahydro-2H-pyrido[3,4-b]indol-2-yl)propan-1-ol]
